Each block holds one compound with its values, some of them ahead of it.
Legend:
circulating leukocytes = assay: In Vivo Model for Leukocytosis; design: species or system Balb/c mice; conditions: bled 1-1.5 h after administration
Excerpt: In Vivo Model for Leukocytosis
Leukocytosis is the increase in circulating white blood cells (leukocytes). This can be brought about by preventing leukocyte binding to counter-receptor adhesion molecules expressed on high endothelial venules. This cell adhesion occurs between immunoglobulin superfamily molecules and integrins. Relevant examples of these paired interactions include […] Adhesion Molecule-1 and AlphaL Beta2 integrin, Vascular Cell Adhesion Molecule-1 and α4β1 integrin, and Mucosal Addressin Cell Adhesion Molecule-1 and α4β7 integrin, respectively.
In this model, a compound that antagonizes these leukocyte-endothelial interactions will cause an increase in circulating leukocytes, defined as leukocytosis, as measured at 1-1.5 h post-administration. This leukocytosis is indicative that normal lymphocyte or leukocyte emigration from the peripheral circulation was prevented. Similar emigration of cells out of the circulation into inflamed tissues is responsible for the progression and maintainance of the inflammatory state. Leukocytosis is an indication that lymphocyte and leukocyte extravasation is prevented, and is predictive of general anti-inflammatory activity.
One week prior to being tested, 7-10 week old female Balb/c mice, n=8 per group, were bled and randomized according to leukocyte counts. One week later, the mice were adminstered test compound orally or subcutaneously and then bled 1-1.5 h after drug administration, approximately 1 h after the peak blood concentration of the compound occurred. Whole blood, 250-350 microliters, was collected from each mouse into potassium-EDTA serum collection tubes (Becton-Dickenson) and mixed to prevent clotting.
Cell counts and differential counts on the whole blood preparation were performed using an Advia 120 Hematology System (Bayer Diagnostics). Cell counts as total leukocytes and as total lympohcytes were made and compared to counts made from mice dosed with vehicle only. Data were reported as percent of vehicle control for lymphocyte counts and total leukocyte counts.
Statistical analyses were performed using ANOVA with Dunnet's multiple comparison test.

DSS induced colitis = assay: Dextran Sulfate Sodium (DSS) Induced Colitis; format: in vivo, Balb/c female mice and C57Black/6 mice
Excerpt: In Vivo Model for Colitis: Dextran Sulfate Sodium (DSS) Induced Colitis Inflammatory bowel diseases such as ulcerative colitis and Crohn's disease are characterized by diminished intestinal barrier function, apparent inflammatory damage that may include erosive loss of intestinal mucosa, and inflammatory infiltrates in the mucosa and submucosa. […] Among the many possible chemicals used are dextran sulfate sodium (DSS) and trinitrobenzene sulfonic acid (TNBS). The dextran sulfate sodium model of experimental colitis is characterized by a shrinkage of the colon's length, macrosopic inflammatory damage, diarrhea, a discontinuous pattern of mucosal epithelial damage in the distal colon with infiltration of inflammatory cells that include macrophages and neutrophils into the mucosa and submucosa (Blumberg, R. S., Saubermann, L. J., and Strober, W. Animal models of mucosal inflammation and their relation to human inflammatory bowel disease. Current Opinion in Immunology, 11: 648-656, 1999; […]., and Nakaya, R. A novel method of induction of reliable experimental acute and chronic colitis in mice. […] Cooper, […]., and […]. Clinicopathologic study of dextran sulfate sodium experimental murine colitis. Lab Invest., 69: 238-249, 1993; […]., Bajaj-Elliott, M., MacDonald, […]., and Buchler, M. W. Characterization of acute murine dextran sodium sulphate colitis: Cytokine profile and dose dependency. Digestion, 62: 240-248, 2000; […]., Husband, A. J., and Doe, W. F. The inflammatory infiltrate in the acute stage of the dextran sulphate sodium induced colitis: B cell response differs depending on the percentage of DSS used to induce it. BMC Clinical Pathology, 1: 3-13, 2001; and Diaz-Granados, Howe, K., Lu, J, and […]. Dextran sulfate sodium-induced colonic histopathology, but not altered epithelial ion transport, is reduced by inhibition of phosphodiesterase activity. Amer. J. Pathology, 156: 2169-2177, 2000). Balb/c female mice and […]/6 mice were used in these studies. […] When […]/6 mice were used, a solution of tap water containing 4% DSS was used. During the ensuing 7-day period, test animals were administered a preparation of an experimental compound. This material may be administered orally or intraperitoneally or subcutaneously, once or twice daily. At the end of this period, the animals were euthanized and their colons were collected for further analysis. Among the parameters analyzed were the length of the colon starting from the anus to the top of the cecum, the consistency of any stools found within the colon, and the gross macroscopic appearance of the colon. The distal colon between the 1st and the 4th centimeter was removed and placed in 10% neutral buffered formalin for later histological analysis. For the following parameters, colon length, stool consistency and appearance, and macroscopic damage a scoring system is used to describe the changes. […] Thus, […] Histological analyses of tissues consisted of staining paraffin-embedded tissue sections with hematoxylin-eosin dye. Epithelial damage scores were determined as the fraction of the tissue section showing damaged epithelium. […] Statistical analysis performed in Graphpad Prism 4.0 using ANOVA with Dunnet's or Bonferroni's multiple comparison's test.

TNBS induced colitis = assay: Trinitrobenzenesulfonic acid (TNBS) Induced Colitis, rats; format: in vivo, Male Wistar rats; conditions: rat
Excerpt: In Vivo Model: Trinitrobenzenesulfonic acid (TNBS) Induced Colitis The TNBS model of experimental colitis (Bobin-Dubigeon, C., Collin, X., Grimaud, N., Robert, J-M., Guillaume Le Baut, G., and Petit, J-Y. Effects of tumour necrosis factor-a synthesis inhibitors on rat trinitrobenzene sulphonic acid-induced chronic colitis. Eur. J. […] These symptomatic signs in the above—mentioned models are similar to what occur in human colitis. Male Wistar rats (200-250 g) are inoculated with 500 microliters of a solution of 10 to 20 mg of TNBS in 30% ethanol delivered intracolonically via catheter or ball-tipped gavage needle to the 8th cm from the anus. When Balb/c female mice (8-12 weeks of age) were used, the inoculation volume was 50 microliters containing 2-3 mg of TNBS in 30% ethanol delivered intracolonically via catheter or ball-tipped gavage needle to the 4th cm from the anus. During the ensuing 7 days, test animals were administered a preparation of an experimental compound. This material may be administered orally, subcutaenously or intraperitoneally, once or twice daily. At the end of this period, the animals were euthanized and their colons were collected for further analysis. Among the parameters analyzed were the length of the colon starting from the anus to the top of the cecum, the weight of the colon, the consistency of any stools found within the colon, the presence or absence of intraperitoneal adhesions on the serosal surfacr of the intestin, and the gross macroscopic appearance of the colon. […] In rats, the distal colon between the 5th and the 8th centimeter is dissected and placed in 10% neutral buffered formalin for later histological analysis. In mice, the 1st to the 4th cm was collected for histological analyses. For the following parameters—colon length, colon weight, stool consistency and appearance and macroscopic damage—a scoring system was used to describe the changes. The four scores for each animal were added to provide a Total Score. […] For the presence of blood in stool, one point was added to scores <3. […] Histological analyses of tissues consisted of staining paraffin-embedded tissue sections with hematoxylin-eosin dye. Epithelial damage scores were determined as the fraction of the tissue section showing damaged epithelium. […] Statistic analyses for these experiments performed with Graphpad Prism 4.0, using ANOVA, with Dunnets or Bonferroni's multiple comparisons test.

α4β1 = target: T1, α4β1 (Homo sapiens, UniProt P05556+P13612); assay: Ramos Cell Adhesion Assay (α4β1 Mediated Adhesion/VCAM-1); format: cell-based; conditions: Ramos cell adhesion to hVCAM-1; read-out: α4β1 IC50
T1 construct: Ramos Cell Adhesion Assay (α4β1 Mediated Adhesion/VCAM-1); endogenous in cells; host or cells: Ramos cells
Summary of the method: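 Plates coated overnight at 4° C with recombinant hVCAM-1 at 4.0 μg/mL, pH 9.0, then blocked in PBS/1% BSA. Calcein AM-labeled Ramos cells added with compounds and left to adhere 1 h at room temperature; after washing, cells lysed in 1 M Tris pH 8.0/1% SDS.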

human α4β7 integrin = target: T2, human α4β7 integrin (Homo sapiens, UniProt P13612+P26010); assay: α4β7-K562 Cell Adhesion Assay (α4β7 Mediated Adhesion/MAdCAM-1); format: cell-based; conditions: α4β7-K562 cell adhesion to hMAdCAM-1; read-out: α4β7 IC50
T2 construct: expressed in transfected cells; host or cells: K562 cells, stably transfected
T2 sequence (P13612 34-1032): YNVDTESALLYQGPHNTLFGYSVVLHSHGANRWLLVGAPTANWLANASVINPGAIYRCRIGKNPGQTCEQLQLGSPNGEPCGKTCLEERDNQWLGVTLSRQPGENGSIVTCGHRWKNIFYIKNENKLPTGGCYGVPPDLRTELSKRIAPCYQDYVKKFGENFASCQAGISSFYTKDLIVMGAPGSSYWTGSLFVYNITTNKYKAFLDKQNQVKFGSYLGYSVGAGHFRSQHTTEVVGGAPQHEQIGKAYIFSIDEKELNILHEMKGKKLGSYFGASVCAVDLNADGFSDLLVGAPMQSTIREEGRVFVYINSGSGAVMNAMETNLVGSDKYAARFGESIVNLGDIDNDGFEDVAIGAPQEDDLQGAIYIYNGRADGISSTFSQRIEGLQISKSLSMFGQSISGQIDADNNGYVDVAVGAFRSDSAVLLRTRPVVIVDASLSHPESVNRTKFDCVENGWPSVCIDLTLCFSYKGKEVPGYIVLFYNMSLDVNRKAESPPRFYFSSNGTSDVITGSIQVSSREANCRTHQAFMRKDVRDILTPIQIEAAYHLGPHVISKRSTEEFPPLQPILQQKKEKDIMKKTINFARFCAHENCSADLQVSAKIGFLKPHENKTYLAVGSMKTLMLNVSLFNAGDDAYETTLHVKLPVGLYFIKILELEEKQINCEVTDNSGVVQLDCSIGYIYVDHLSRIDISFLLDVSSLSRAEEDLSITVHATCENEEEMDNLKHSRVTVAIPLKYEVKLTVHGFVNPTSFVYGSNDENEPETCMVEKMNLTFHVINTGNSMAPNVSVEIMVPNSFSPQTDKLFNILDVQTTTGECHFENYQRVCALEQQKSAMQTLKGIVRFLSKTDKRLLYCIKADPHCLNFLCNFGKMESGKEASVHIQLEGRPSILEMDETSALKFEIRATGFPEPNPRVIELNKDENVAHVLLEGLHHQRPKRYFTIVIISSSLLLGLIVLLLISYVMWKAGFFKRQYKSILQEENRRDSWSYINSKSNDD
T2 sequence (P26010 20-798): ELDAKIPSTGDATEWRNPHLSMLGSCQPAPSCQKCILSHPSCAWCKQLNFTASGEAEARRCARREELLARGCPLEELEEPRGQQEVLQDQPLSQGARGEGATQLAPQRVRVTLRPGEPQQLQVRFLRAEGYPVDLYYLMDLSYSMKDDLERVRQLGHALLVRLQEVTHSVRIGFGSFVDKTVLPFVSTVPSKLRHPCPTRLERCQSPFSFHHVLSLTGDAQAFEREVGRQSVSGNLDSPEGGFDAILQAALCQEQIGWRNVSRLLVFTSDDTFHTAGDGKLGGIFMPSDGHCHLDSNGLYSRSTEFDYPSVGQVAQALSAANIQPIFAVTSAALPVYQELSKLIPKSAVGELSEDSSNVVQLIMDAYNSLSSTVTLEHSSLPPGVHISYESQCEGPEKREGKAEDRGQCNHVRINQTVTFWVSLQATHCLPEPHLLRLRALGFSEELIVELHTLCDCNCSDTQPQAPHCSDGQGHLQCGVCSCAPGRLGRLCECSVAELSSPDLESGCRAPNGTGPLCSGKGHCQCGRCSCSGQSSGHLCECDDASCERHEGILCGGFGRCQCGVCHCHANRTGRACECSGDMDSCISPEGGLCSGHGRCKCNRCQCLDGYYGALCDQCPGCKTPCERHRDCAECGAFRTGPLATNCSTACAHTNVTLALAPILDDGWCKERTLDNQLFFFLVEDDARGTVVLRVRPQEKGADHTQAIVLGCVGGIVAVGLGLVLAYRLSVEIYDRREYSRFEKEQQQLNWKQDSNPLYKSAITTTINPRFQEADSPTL
Summary of the method: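 Anti-FLAG plates coated 1 h at 4° C with FLAG-hMAdCAM-1 in PBS pH 7.4, 1% BSA, 1 mM Mn2+. Stably transfected K562 cells expressing human α4β7, labelled with CFDA-SE, adhered with compound 1 h at room temperature. After four washes, bound cells lysed in 0.1 M NaOH for fluorescence read-out.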

[1] = 30 mg/kg po bid, C57 Black/6 mice
[2] = 60 mg/kg po bid, C57 Black/6 mice

T1 sequence (P05556 21-798, one chain of several): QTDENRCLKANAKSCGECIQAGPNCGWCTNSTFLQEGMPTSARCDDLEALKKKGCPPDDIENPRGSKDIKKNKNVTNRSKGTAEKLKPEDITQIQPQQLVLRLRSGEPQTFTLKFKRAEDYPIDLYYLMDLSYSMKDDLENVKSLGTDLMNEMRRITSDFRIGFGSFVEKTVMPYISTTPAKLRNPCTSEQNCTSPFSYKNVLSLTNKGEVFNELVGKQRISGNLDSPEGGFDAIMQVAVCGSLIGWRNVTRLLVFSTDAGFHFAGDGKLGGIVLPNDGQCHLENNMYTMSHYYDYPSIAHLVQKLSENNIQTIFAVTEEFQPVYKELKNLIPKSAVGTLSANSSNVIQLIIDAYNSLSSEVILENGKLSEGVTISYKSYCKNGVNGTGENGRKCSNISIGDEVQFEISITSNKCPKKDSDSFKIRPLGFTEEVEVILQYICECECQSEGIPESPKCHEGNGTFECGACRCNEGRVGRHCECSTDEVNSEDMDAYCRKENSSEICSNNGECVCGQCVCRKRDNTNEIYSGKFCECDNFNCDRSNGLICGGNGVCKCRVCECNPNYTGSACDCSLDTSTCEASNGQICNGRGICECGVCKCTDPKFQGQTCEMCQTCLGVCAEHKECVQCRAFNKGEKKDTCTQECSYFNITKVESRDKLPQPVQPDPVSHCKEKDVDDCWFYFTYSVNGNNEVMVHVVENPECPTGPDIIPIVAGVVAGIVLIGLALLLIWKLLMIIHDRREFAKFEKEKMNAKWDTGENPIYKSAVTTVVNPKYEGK

SMILES: COc1cnn(CCO)c(=O)c1-c1ccc(C[C@H](NC(=O)OC(C)(C)C)C(=O)OCCO)cc1 [Cpd 231]
Lymphoycte Counts % of Vehicle Control (circulating leukocytes; 3 mg/kg po): 114.5%
Total Leukocyte Count % of Vehicle Control (circulating leukocytes; 3 mg/kg po): 110.7%
Lymphoycte Counts % of Vehicle Control (circulating leukocytes; 10 mg/kg po): 94.0%
Total Leukocyte Count % of Vehicle Control (circulating leukocytes; 10 mg/kg po): 98.0%
Lymphoycte Counts % of Vehicle Control (circulating leukocytes; 30 mg/kg po): 88.7%
Total Leukocyte Count % of Vehicle Control (circulating leukocytes; 30 mg/kg po): 86.9%
% Inhibition of Epithelial Damage Score (DSS induced colitis; [1]): 23.91%
% Inhibition of Total Macroscopic Score (DSS induced colitis; [1]): 13.4%
% Inhibition of Total Macroscopic Score (DSS induced colitis; 30 mg/kg po bid, balb/c mice): 43.8%
% Inhibition of Epithelial Damage Score (DSS induced colitis; [2]): 53.9%
% Inhibition of Total Macroscopic Score (DSS induced colitis; [2]): 23.4%
% Inhibition of Epithelial Damage Score (DSS induced colitis; 60 mg/kg po bid, balb/c mice): 36.5%
% Inhibition of Total Macroscopic Score (DSS induced colitis; 60 mg/kg po bid, balb/c mice): 47.7%
% Inhibition of Epithelial Damage Score (TNBS induced colitis; 30 mg/kg po bid): 24.69%
% Inhibition of Total Macroscopic Score (TNBS induced colitis; 30 mg/kg po bid): 19.33%
% Inhibition of Epithelial Damage Score (TNBS induced colitis; 60 mg/kg po bid): 38.64%
% Inhibition of Total Macroscopic Score (TNBS induced colitis; 60 mg/kg po bid): 5.455%

IC50 (α4β1): > 5 µM
SMILES: COc1cnn(C)c(=O)c1-c1ccc(C[C@H](NC(=O)c2cc(F)ccc2Cl)C(=O)OCCO)cc1 [Cpd 2]
% Inhibition of Epithelial Damage Score (TNBS induced colitis; 30 mg/kg po bid): 10.25%
% Inhibition of Total Macroscopic Score (TNBS induced colitis; 30 mg/kg po bid): −0.885%

IC50 (α4β1): 0.192 µM
IC50 (human α4β7 integrin): 0.002 µM
SMILES: Cn1ncc(OCCOCCO)c(-c2ccc(C[C@H](NC(=O)c3c(Cl)cccc3Cl)C(=O)O)cc2)c1=O [Cpd 7]

IC50 (α4β1): 0.656 µM
IC50 (human α4β7 integrin): 0.097 µM
SMILES: COc1cnn(C)c(=O)c1-c1ccc(C[C@H](NC(=O)C2(N)CCOCC2)C(=O)O)cc1 [Cpd 116]

IC50 (α4β1): > 5 µM
IC50 (human α4β7 integrin): 0.865 µM
SMILES: COc1cnn(C)c(=O)c1-c1ccc(C[C@H](NC(=O)c2n[nH]c3ccccc23)C(=O)O)cc1 [Cpd 187]

IC50 (α4β1): > 5 µM
IC50 (human α4β7 integrin): 0.999 µM
SMILES: COc1cnn(C)c(=O)c1-c1ccc(C[C@H](NC(=O)c2cccnc2O)C(=O)O)cc1 [Cpd 191]
